Data reported in patent US11851681B2, “Cell preparation method” (KYOTO PREFECTURAL PUBLIC UNIVERSITY CORPORATION, priority 2015, dated 2023).
“Also recorded” adds a separate entry of the source. Read-outs that look alike come from different tables or passages of the source.

Key:
[1] = tested on: Human Epidermal Keratinocyte; NHEK (AD); assay: Real-time RT-PCR of UCP1 and CIDEA, keratinocyte to brown adipocyte, Example 43; assay type: cell-based; conditions: K-adipocyte induction medium; ALK5 inhibitor II 4 μM or LY2157299 8 μM, Day 1 to Day 8; day 14; FIG. 47
Experimental: Normal human epidermal keratinocyte (Human Epidermal Keratinocyte; NHEK (AD)) were suspended in a serum-free liquid medium for normal human epidermal keratinocyte proliferation (HuMedia-KG2; manufactured by Kurabo).
The K-adipocyte induction medium is HuMedia-KG2 added with 1 nM T3, 1 μM Rosiglitazone, 0.5 mM 3-isobutyl-1-methylxanthine (IBMX), 0.5 μM dexamethasone, and 1 μg/mL Insulin.
Once every 2 days, the culture medium was exchanged with a fresh one, and culturing was performed from Day 1 to Day 8. Thereafter, from Day 9 to Day 14, the cells were cultured in a medium free of ALK5 inhibitor II or LY2157299. On day 14, the culture medium was removed by suction from each well, washed with PBS(−) and total RNA was extracted from the cells by using RNA easy Mini Kit manufactured by Qiagen. cDNA was synthesized from the RNA by using Rever Tra Ace qPCR RT Master Mix. This cDNA was admixed with Real-time PCR Master Mix, primers specific to UCP-1 gene, CIDEA gene or β actin gene and Taqman probe. qRT-PCR was performed using AB7300 Real-time PCR system. The mRNA level of UCP1 gene and CIDEA gene was quantified as a ratio to β-actin gene mRNA level, and calculated with the value of fibroblast cultured in the general medium as 1.

[2] = tested on: human dermal fibroblasts; HDFs; assay: Real-time RT-PCR of CIDEA, Example 13; assay type: cell-based; conditions: compound 2 μM in addition to T3 1 nM and Rosiglitazone 1 μM, adipocyte induction medium; day 14; FIG. 13
Experimental: The concentrations of the additives are as follows: • T3: 1 nM • Rosiglitazone: 1 μM • D4476: 2 μM • Pifithrin alpha [p53 inhibitor]: 5 μM • SB431542: 2 μM • ALK5 Inhibitor II: 2 μM.

[3] = tested on: human dermal fibroblasts; HDFs; conditions: cartilage induction medium added with 2 M ALK5 inhibitor II; day 18; FIG. 9
Experimental: Once every 2 days, the culture medium was exchanged with a fresh one, and culturing was performed until day 18. The cells were washed twice with PBS(−), once with 3% acetic acid solution, an alcian blue staining solution (PH2.5) (Nacalai Tesque) was added and the cells were stained for 1 hr at room temperature. The cells were washed 3 times with PBS(−) and observed under a microscope.

[4] = tested on: Human normal skin-derived fibroblasts (HDFs); assay: Real-time RT-PCR of ALP, Osteocalcin, Bonesialoprotein, Example 35; assay type: cell-based; conditions: calcification induction medium added with ALK5 i II 4 μM; day 18; FIG. 39
Experimental: The concentrations of the small molecule compound or cytokine added are as follows. • ALK5 i II: 4 μM • 1α,25-dihydroxy Vitamin D3 (VD3): 5 nM • Human insulin-like growth factor-1 (IGF-1): 100 ng/ml.

[5] = tested on: human dermal fibroblasts; HDFs; assay: Real-time RT-PCR of Osteocalcin and Alkaline Phosphatase, Example 3; assay type: cell-based; conditions: each compound 2 μM in calcification induction medium; day 24; FIG. 3
Experimental: The concentrations of the compounds are as follows: • D4476: 2 μM • SB431542: 2 μM • ALK5 inhibitor II: 2 μM.

[6] = tested on: human dermal fibroblasts; HDFs; assay: Bodipy staining in WA medium (BODIPY positive cells), Example 46; conditions: day 12, FIG. 50
[7] = tested on: human dermal fibroblasts; HDFs; assay: Bodipy staining in WA medium, four inhibitors, Example 48; assay type: cell-based; conditions: day 12, FIG. 52
[8] = tested on: human dermal fibroblasts; HDFs; assay: Real-time RT-PCR of AdipoQ, Example 14; assay type: cell-based; conditions: D4476, SB431542, ALK5 Inhibitor II 2 μM, PD0325901 1 μM, in addition to T3 and Rosiglitazone; day 14; FIG. 14
Experimental: The concentrations of the additives are as follows: • T3: 1 nM • Rosiglitazone: 1 μM • D4476: 2 μM. • Pifithrin alpha [p53 inhibitor]: 5 μM • PD0325901: 1 μM • SB431542: 2 μM • ALK5 Inhibitor II: 2 μM.

[9] = tested on: Human normal skin-derived fibroblasts (HDFs); assay: Alizarin Red S and ALP staining, absorbance, TGF-β pathway inhibitor panel, Examples 31-32; assay type: cell-based
Experimental: On day 21, the culture medium was removed from a part of the well, washed with PBS(-), and fixed with a fixative. It was washed 3 times with sterile distilled water. […] In the experiment of Example 31, the solution after staining with the Alizarin Red S staining solution was collected in a 96 well plate and the absorbance (OD 550 nm) was measured with an absorption spectrometer.

[10] = tested on: Human normal skin-derived fibroblasts (HDFs); conditions: 4 μM in adipocyte induction medium Day 1 to Day 8; day 14; FIG. 46
Experimental: Human normal skin-derived fibroblasts (HDFs) were suspended in a general medium (DMEM added with 10% FBS). […] The adipocyte induction medium is DMEM added with 1 nM T3, 1 μM Rosiglitazone, 0.5 mM 3-isobutyl-1-methylxanthine (IBMX), 0.5 μM dexamethasone, 1 μg/mL Insulin and 10% FBS. […] On day 14, the culture medium was removed by suction from each well, and washed with PBS(−). […] After washing 3 times with PBS(−), Blocking One was added, and the mixture was incubated at room temperature for 60 min. Anti-UCP-1 antibody (RD MAB6158) was added and the mixture was reacted for 2 hrs at room temperature, and washed 3 times with Wash buffer. CF488-conjugated anti-mouse Ig antibody (Biotum 20014) was added and the mixture was reacted for 2 hrs at room temperature, and washed 3 times with PBS(−). After nuclear staining with SlowFade Gold antifade reagent with DAPI manufactured by Lifetechnology, the cells were photographed with a fluorescence microscope at ×100 magnification.

[11] = tested on: human dermal fibroblasts; HDFs; conditions: 4 μM in calcification induction medium; day 18; FIG. 22
Experimental: (§2) The calcification induction medium is a 10% FBS DMEM added with 50 μg/ml ascorbic acid, 10 mM β-glycerophosphate and 100 nM Dexamethasone. The culture medium was exchanged with a fresh one every 3-4 days, and culturing was performed until day 18.
On day 18, the culture medium was removed from each well by suction, washed with PBS, and total RNA was extracted from the cell with ISOGEN II. cDNA was synthesized from the RNA by using Rever Tra Ace qPCR RT Master Mix. This cDNA was admixed with Real-time PCR Master Mix, and primers specific to Osteocalcin, Alkaline Phosphatase or β-actin gene, and Taqman probe. qRT-PCR was performed using AB7300 Real-time PCR system. The mRNA level of Osteocalcin (Oc) and Alkaline Phosphatase (ALP) gene was quantified as a ratio to β-actin gene mRNA, and calculated with the value of fibroblast cultured in a calcification induction medium as 1.

[12] = tested on: human gingival fibroblasts; GFs; conditions: 4 μM in calcification induction medium; day 18; FIG. 28
Experimental: as §2
On day 18, the culture medium was removed from each well by suction, washed with PBS(−), and fixed with a fixative. It was washed 3 times with sterile distilled water. The well after ALP staining was washed with sterile distilled water, and photographed with an inverted microscope at ×40 magnification.

[13] = tested on: human dermal fibroblasts; HDFs; conditions: 4 μM in MDI medium; day 14; FIG. 24
Experimental: MDI medium (3-isobutyl-1-methylxanthine/dexamethasone/insulin-containing medium) is 10% FBS DMEM added with 0.5 mM 3-isobutyl-1-methylxanthine (IBMX), 0.5 μM dexamethasone, and 1 μg/mL Insulin. The culture medium was exchanged with a fresh one every 3-4 days, and culturing was performed until day 14.
On day 14, the culture medium was removed from each well by suction, washed with PBS, and total RNA was extracted from the cell with ISOGEN II. cDNA was synthesized from the RNA by using Rever Tra Ace qPCR RT Master Mix. This cDNA was admixed with Real-time PCR Master Mix, and primers specific to AdipoQ, FABP4 or β-actin gene, and Taqman probe. qRT-PCR was performed using AB7300 Real-time PCR system. The mRNA level of AdipoQ and FABP4 gene was quantified as a ratio to β-actin gene mRNA level, and calculated with the value of fibroblast cultured in MDI medium as 1.

[14] = tested on: Human normal skin-derived fibroblasts (HDFs); assay: Real-time RT-PCR of UCP1, CIDEA, KCNK3, Example 41; assay type: cell-based; conditions: ALK5 inhibitor II or LY2157299 (8 μM), Day 1 to Day 8; day 14; FIG. 45
Experimental: Human normal skin-derived fibroblasts (HDFs) were suspended in a general medium (DMEM added with 10% FBS). […] The adipocyte induction medium is DMEM added with 1 nM T3, 1 μM Rosiglitazone, 0.5 mM 3-isobutyl-1-methylxanthine (IBMX), 0.5 μM dexamethasone, 1 μg/mL Insulin and 10% FBS. Once every 2 days, the culture medium was exchanged with a fresh one, and culturing was performed from Day 1 to Day 8. Thereafter, from Day 9 to Day 14, the cells were cultured in an adipocyte induction medium free of ALK5 inhibitor II or LY2157299. On day 14, the culture medium was removed by suction from each well, washed with PBS(−) and total RNA was extracted from the cells by using RNA easy Mini Kit manufactured by Qiagen. cDNA was synthesized from the RNA by using Rever Tra Ace qPCR RT Master Mix. This cDNA was admixed with Real-time PCR Master Mix, primers specific to UCP-1 gene, CIDEA gene, KCNK3 gene or β actin gene and Taqman probe. qRT-PCR was performed using AB7300 Real-time PCR system. The mRNA level of UCP1 gene was quantified as a ratio to β-actin gene mRNA, and calculated with the value of fibroblast cultured in the general medium as 1.

[15] = tested on: Human Epidermal Keratinocyte; NHEK (AD); conditions: CnT-PR medium, 1 μM or 10 μM; day 21; FIG. 56
[16] = tested on: Human normal skin-derived fibroblasts (HDFs); assay: Immunostaining of UCP1, four inhibitors, Example 40; assay type: cell-based; conditions: LY2157299 8 μM, SB431542 4 μM, D4476 4 μM, Day 1 to Day 8, day 14, FIG. 44
Experimental: Human normal skin-derived fibroblasts (HDFs) were suspended in a general medium (DMEM added with 10% FBS). […] The adipocyte induction medium is DMEM added with 1 nM T3, 1 μM Rosiglitazone, 0.5 mM 3-isobutyl-1-methylxanthine (IBMX), 0.5 μM dexamethasone, 1 μg/mL Insulin and 10% FBS. Once every 2 days, the culture medium was exchanged with a fresh one, and culturing was performed from Day 1 to Day 8. Thereafter, from Day 9 to Day 14, the cells were cultured in an adipocyte induction medium free of ALK5 inhibitor II, LY2157299, SB431542, D4476. On day 14, the culture medium was removed by suction from each well, and washed with PBS(−). After fixing with 4% para-formaldehyde, the well was washed with PBS (−), Permanent wave Buffer (0.2% Triton-X addition PBS) was added and the well was incubated for 15 min. After washing 3 times with PBS(−), Blocking One was added, and the mixture was incubated at room temperature for 60 min. Anti-UCP-1 antibody (RD MAB6158) was added and the mixture was reacted for 2 hrs at room temperature, and washed 3 times with Wash buffer. CF488-conjugated anti-mouse Ig antibody (Biotum 20014) was added and the mixture was reacted for 2 hrs at room temperature, and washed 3 times with PBS(−). After nuclear staining with SlowFade Gold antifade reagent with DAPI manufactured by Lifetechnology, the cells were photographed with a fluorescence microscope at ×100 magnification.

[17] = tested on: HDF45, HDF69, HDF22; conditions: 4 μM in calcification induction medium; day 10 (ALP), day 15 (Alizarin Red S); FIG. 37, 38
Excerpt: (§1) It was washed 3 times with sterile distilled water.
as §1

[18] = tested on: human gingival fibroblasts; GFs; conditions: 4 μM in calcification induction medium; day 18; FIG. 27
Experimental: as §2
On day 18, the culture medium was removed from each well by suction, washed with PBS(−), and fixed with 10% formalin. It was washed 3 times with sterile distilled water. The well after Alizarin Red S staining was washed with sterile distilled water, and photographed with an inverted microscope at ×40 magnification.

Cc1cccc(-c2n[nH]cc2-c2ccc3ncccc3n2)n1 [ALK5 inhibitor II, 2-(3-(6-Methylpyridin-2-yl)-1H-pyrazol-4-yl)-1,5-naphthyridine]
conversion of epidermal keratinocyte to brown adipocyte, UCP1 and CIDEA mRNA [1]: converted normal human epidermal keratinocyte to brown adipocyte expressing UCP1 gene and CIDEA gene
conversion of fibroblast to brown adipocytes, CIDEA mRNA [2]: converted fibroblast to brown adipocytes expressing mRNA of CIDEA gene
conversion of fibroblast to cartilage, alcian blue staining [3]: can convert human normal skin-derived fibroblast to cartilage that produces cartilage matrix stained blue
mRNA expression of ALP [4]: significantly increased
mRNA expression of BSP, compared to calcification induction medium [4]: increased
mRNA expression of OC, compared to calcification induction medium [4]: increased
conversion of human fibroblast to osteoblast, Osteocalcin and Alkaline Phosphatase mRNA [5]: converted to osteoblast expressing osteocalcin and alkaline phosphatase gene; also recorded: most efficiently converts fibroblast to osteoblast
BODIPY positive cells / conversion to white adipocyte, co-addition with Rosiglitazone ([6]; WA medium co-added with 8 μM or 16 μM ALK5 inhibitor II and 1 μM Rosiglitazone): more cells were stained; also recorded: more strongly induced conversion of fibroblast to white adipocyte
BODIPY positive cells / conversion to white adipocyte, single addition ([6]; WA medium, 1 μM Rosiglitazone or 16 μM ALK5 inhibitor II): contained stained cells at low frequency; also recorded: converted human fibroblast to white adipocyte
lipid droplets stained with Bodipy, inhibitor alone ([7]; WA medium added with 16 μM compound alone): only a few cells contained lipid droplets stained with Bodipy
lipid droplets stained with Bodipy / conversion to white adipocyte, inhibitor and Rosiglitazone ([7]; WA medium added with 16 μM compound and 1 μM Rosiglitazone): many cells were stained; also recorded: most strongly induced conversion of fibroblast to white adipocyte
conversion of fibroblast to brown adipocytes, AdipoQ mRNA [8]: converted fibroblast to brown adipocytes expressing mRNA of AdipoQ gene
conversion of human fibroblast to osteoblast, Alizarin Red S / ALP staining and absorbance ([9]; calcification induction medium, compounds 1 or 4 μM, TGF-β 10 ng/ml, day 21, FIG. 35, 36, listed as ALK5 i II): can strongly convert human fibroblast to osteoblast; also recorded: can most strongly convert human fibroblast to osteoblast
efficiency in converting fibroblast to osteoblast (summary statement) ([9]; description, conditions not given): highly efficient in converting fibroblast to osteoblast
fibroblasts converted to brown adipocyte highly expressing UCP1 protein (UCP1 positive cells in DAPI positive cells) [10]: more than 90%
staining with anti-UCP1 antibody [10]: many cells were strongly stained with anti-UCP1 antibody
conversion of fibroblast to osteoblast, Osteocalcin and ALP mRNA [11]: converted human skin-derived fibroblast to osteoblast expressing osteocalcin gene and ALP gene
conversion of gingival-derived fibroblast to osteoblast, ALP staining [12]: converted human gingival-derived fibroblast to osteoblast having high ALP activity
conversion of fibroblast to white adipocyte, AdipoQ and FABP4 mRNA [13]: converted human skin-derived fibroblast to white adipocyte expressing AdipoQ gene and FABP4 gene
conversion of fibroblast to brown adipocyte, UCP1, CIDEA and KCNK3 mRNA [14]: converted fibroblast to brown adipocyte expressing UCP1 gene, CIDEA gene and KCNK3 gene; also recorded: more strongly induced
conversion of epidermal keratinocyte to urothelial cell, Uroplakin 1b and Uroplakin 3b mRNA [15]: converted human epidermal keratinocyte to urothelial cell expressing Uroplakin 1b gene and Uroplakin 3b gene
conversion of fibroblast to brown adipocyte, UCP1 protein ([16]; ALK5 inhibitor II 4 μM): converted fibroblast to brown adipocyte expressing UCP1 protein; also recorded: most strongly induced
staining with anti-UCP1 antibody ([16]; groups 3-6: ALK5 inhibitor II 4 μM): many cells were stained with anti-UCP1 antibody; also recorded: the density of the cells stained with anti-UCP1 antibody was the highest
conversion of fibroblasts from different individuals to osteoblasts, ALP and Alizarin Red S staining [17]: are converted to osteoblasts
conversion of gingival-derived fibroblast to osteoblast, Alizarin Red S staining [18]: converted human gingival-derived fibroblast to osteoblast that produces a large amount of calcified bone matrix
